14 compounds from ChEMBL document CHEMBL5104178, “Nitroimidazopyrazinones with Oral Activity against Tuberculosis and Chagas Disease in Mouse Models of Infection” (J Med Chem, 2022) can be followed below.

Series [1] has as its system Mycobacterium tuberculosis. The series can be described thus: Antimycobacterial activity against Mycobacterium tuberculosis H37Rv ATCC 27294 assessed as bacterial growth inhibition incubated for 5 days under normoxic condition by resazurin microtiter assay. Type of series: functional. The following applies: H37Rv ATCC 27294, 120 h, time 5 day.
Series [2] has as its system Mycobacterium tuberculosis. The series can be described thus: Antimycobacterial activity against Mycobacterium tuberculosis H37Ra ATCC 25177 assessed as bacterial growth inhibition incubated for 6 days under normoxic condition by resazurin microtiter assay. Type of series: functional. As to conditions: H37Ra ATCC 25177, 144 h, time 6 day. (Alamar Blue is a resazurin reagent that responds to reducing activity.)

The test system of series [3] is Mycobacterium avium. The series can be described thus: Antimycobacterial activity against Mycobacterium avium ATCC 25291 assessed as bacterial growth inhibition incubated for 6 days under normoxic condition by resazurin microtiter assay. The series is classed as functional. As to conditions: ATCC 25291, 144 h, time 6 day.
For series [4], the system named is Mycolicibacterium smegmatis. The series can be described thus: Antimycobacterial activity against Mycobacterium smegmatis mc2155 ATCC 700084 assessed as bacterial growth inhibition incubated for 24 hrs under normoxic condition by resazurin microtiter assay. Type of series: functional.
A short description of series [5]: Solubility of compound in PBS at 7.4 by LC-UV analysis. Type of series: physicochemical. The following applies: pH 7.4.
Series [6] is described as follows: Solubility of compound in water by LC-UV analysis. As to conditions: water; read-out: solubility. Type of series: physicochemical.
Series [7] deals with Mycobacterium tuberculosis. In words: Antimycobacterial activity against Mycobacterium tuberculosis H37Rv ATCC 27294 assessed as bacterial growth inhibition incubated for 5 days under hypoxic condition by resazurin microtiter assay. Type of series: functional. The following applies: H37Rv ATCC 27294, 120 h, time 5 day.
Series [8] deals with Mycobacterium tuberculosis. The series can be described thus: Substrate activity at Mycobacterium tuberculosis Ddn expressed in Escherichia coli BL21 (DE3) assessed as oxidation of F420H2 by measuring Kcat by spectrophotometric analysis.
Series [9] has as its system Mycobacterium tuberculosis. In words: Substrate activity at Mycobacterium tuberculosis Ddn expressed in Escherichia coli BL21 (DE3) assessed as oxidation of F420H2 by measuring Km by spectrophotometric analysis.
Series [10] relates to Mycobacterium tuberculosis. The series can be described thus: Substrate activity at Mycobacterium tuberculosis Ddn expressed in Escherichia coli BL21 (DE3) assessed as oxidation of F420H2 by measuring Kcat/Km by spectrophotometric analysis.
Series [11] can be described thus: Cmax in CD-1 mouse at 20 mg/kg, po administered as DMSO/PEG400 formulation measured upto 24 hrs by LC-MS/MS analysis. Type of series: ADME, organism-based. Also noted: dose 20 mg/kg, time < 24 hrs, route po. The following applies: in vivo.
Series [12] in a line: Tmax in CD-1 mouse at 20 mg/kg, po administered as DMSO/PEG400 formulation measured upto 24 hrs by LC-MS/MS analysis. The series is classed as ADME, organism-based. The following applies: in vivo.
A short description of series [13]: Half life in CD-1 mouse at 20 mg/kg, po administered as DMSO/PEG400 formulation measured upto 24 hrs by LC-MS/MS analysis. Type of series: ADME, organism-based. The following applies: in vivo.
Series [14] in a line: Oral bioavailability in CD-1 mouse at 20 mg/kg administered as DMSO/PEG400 formulation measured upto 24 hrs by LC-MS/MS analysis. Type of series: ADME, organism-based. As to conditions: in vivo.
Series [15] can be described thus: Volume of distribution at steady state in CD-1 mouse at 5 mg/kg, iv administered as DMSO/PEG400 formulation measured upto 24 hrs by LC-MS/MS analysis. The following applies: in vivo, read-out: Vdss. Type of series: ADME, organism-based.
The nature of series [16]: Clearance in CD-1 mouse at 5 mg/kg, iv administered as DMSO/PEG400 formulation measured upto 24 hrs by LC-MS/MS analysis. The series is classed as ADME, organism-based. The following applies: in vivo.
The nature of series [17]: Half life in CD-1 mouse at 5 mg/kg, iv administered as DMSO/PEG400 formulation measured upto 24 hrs by LC-MS/MS analysis. The series is classed as ADME, organism-based. As to conditions: in vivo.
A short description of series [18]: AUC(0 to 24 hrs) in CD-1 mouse at 20 mg/kg, po administered as DMSO/PEG400 formulation measured upto 24 hrs by LC-MS/MS analysis. The series is classed as ADME, organism-based. As to conditions: in vivo. Also on record: dose 20 mg/kg, time < 24 hrs, route po.

Values after ≈ are worked out from the molar mass of the structure shown.

Broadly, the MIC is the least concentration at which growth counts as inhibited. In the case of `Cc1cn2cc([N+](=O)[O-])nc2c(=O)n1Cc1ccc(OC(F)(F)F)cc1`, the MIC in [1] is more than 32 µg/mL; in [2] it was 4 µg/mL (≈ 10.9 µM); in series [3] it was more than 32 µg/mL; in series [4], more than 32 µg/mL.

The term solubility denotes how much of the substance goes into solution per volume. Take `O=C1c2nc([N+](=O)[O-])cn2CN1Cc1ccccc1`: the solubility in series [5] and in [6] was 5.9 µM (≈ 1.52 µg/mL) in each case. The MIC in series [1] and in series [7] was more than 32 µg/mL each time.

With `O=C1CCn2cc([N+](=O)[O-])nc2N1Cc1ccccc1`, the results for the solubility in series [5] and in [6] were 142 µM (≈ 38.7 µg/mL) and 137 µM (≈ 37.3 µg/mL), respectively. The minimal inhibitory concentration (MIC) in series [1] and in [7] was more than 32 µg/mL in each case.

As for `O=c1c2nc([N+](=O)[O-])cn2ccn1Cc1ccccc1`, the solubility in series [5] was determined as 2.7 µM (≈ 0.73 µg/mL); in series [6] it was 3.2 µM (≈ 0.865 µg/mL).

One may read the kcat as the maximal rate divided by the concentration of active sites. In general, Km refers to the concentration of substrate that gives half-maximal velocity. One may read the kcat/Km as the turnover number divided by the Michaelis constant. With `O=c1c2nc([N+](=O)[O-])cn2ccn1Cc1ccc(-c2cccc(OC(F)(F)F)c2)cc1`, the kcat in series [8] was 3.1 10^-3/s. For the same compound, in series [9], the Michaelis constant (Km) amounted to 8.4 µM. The kcat/Km in series [10] amounted to 370 M⁻¹ s⁻¹.

Turning to `Cc1c(C)n2cc([N+](=O)[O-])nc2c(=O)n1Cc1ccc(OC(F)(F)F)cc1`, the MIC in series [3] and in series [4] was more than 32 µg/mL in each case. For the same compound, the turnover number (kcat) in [8] was 6.9 10^-3/s. For the same compound, the Km in [9] worked out at 28 µM. Moreover, the specificity constant (kcat/Km) in series [10] came out at 244 M⁻¹ s⁻¹.

Turning to `O=c1c2nc([N+](=O)[O-])cn2ccn1Cc1ccc(N2CCCCC2)cc1`, the turnover number (kcat) in series [8] is 1.7 10^-3/s. Also, the Km in [9] worked out at 2.2 µM. In addition, the kcat/Km in series [10] worked out at 773 M⁻¹ s⁻¹.

For the compound `O=c1c2nc([N+](=O)[O-])cn2ccn1Cc1ccc(-c2cccc(OC(F)(F)F)c2)nc1`, the turnover number (kcat) in series [8] was 1.3 10^-3/s. The Km in [9] was 5 µM. The catalytic efficiency (kcat/Km) in series [10] stood at 266 M⁻¹ s⁻¹.

By Cmax is commonly meant the maximum level reached in the sampled fluid or tissue. The term Tmax denotes the time from dosing to the highest level. As a reminder, the half-life is the time needed for the level to fall by half in the phase considered. What is called bioavailability is the share of a dose that reaches the circulation, judged against a reference dose that is usually intravenous. A higher bioavailability goes with good availability. As a reminder, the clearance is the volume of plasma or blood freed of the substance per unit of time. Usually AUC(0-t) stands for exposure summed from dosing to a finite time, without extrapolation to infinity. Read a low AUC(0-t) as low exposure. `O=c1c2nc([N+](=O)[O-])cn2ccn1Cc1ccc(-c2ccc(OC(F)(F)F)cc2)cn1` registered a Cmax in series [11] of 3600 ng/mL. In addition, the time of peak concentration (Tmax) in [12] turned out to be 5.3 h. In addition, the half-life in series [13] is 6.1 h; in [17] it was 7.2 h. In addition, the bioavailability in series [14] came out at 45%. Also, in [15], the Vd came out at 1.3 L/kg. Also, the clearance in [16] was 2.06 mL/min/kg. Besides, the exposure AUC(0-t) at 24 h in series [18] was 45900 ng·h/mL.

Take `O=C(NCc1ccc(OC(F)(F)F)cc1)c1ncc([N+](=O)[O-])[nH]1`: the kcat in series [8] was 2.1 10^-4/s. The Km in [9] is 31 µM. For the same compound, in series [10], the specificity constant (kcat/Km) was found to be 6.9 M⁻¹ s⁻¹.

For `Cc1nc(OCc2ccc(OC(F)(F)F)cc2)c2nc([N+](=O)[O-])cn2c1C`, the MIC in [1], in series [2], in series [3], in series [4] and in series [7] was more than 32 µg/mL in each case. In addition, the kcat in series [8] was 7 10^-4/s. In [9], the Michaelis constant (Km) is 30 µM. Moreover, the catalytic efficiency (kcat/Km) in [10] came out at 24 M⁻¹ s⁻¹.

On to `Cc1ccc(Cn2ccn3cc([N+](=O)[O-])nc3c2=O)cc1`, for which the catalytic constant (kcat) in [8] was 4.3 10^-3/s. Also, the Michaelis-Menten constant (Km) in series [9] came out at 2.5 µM. In addition, in series [10], the kcat/Km came to 1710 M⁻¹ s⁻¹.

On to `NNC(=O)c1ccncc1` [ISONIAZID], for which the minimum inhibitory concentration (MIC) in series [2] was 0.031 µg/mL (≈ 0.226 µM); in [3], more than 32 µg/mL; in series [4], more than 32 µg/mL.

For `O=c1c2nc([N+](=O)[O-])cn2ccn1Cc1cncc(-c2cccc(OC(F)(F)F)c2)c1`, the kcat in [8] was 1.4 10^-2/s. Besides, in series [9], the Km is 4.3 µM. Also, the kcat/Km in series [10] was determined as 3190 M⁻¹ s⁻¹.
